The source of these data is patent publication US20200369626A1 (Washington University, priority 2019, published 2020).

Molecules are shown by their SMILES. “And” between values parts separate entries of the source, which are not always exact repeats. Identical values can stand only once.

One series addresses T1, S1PR2 (Homo sapiens, UniProt O95136).
T1 construct: purchased
In words: competitive [^32P]S1P binding assay on cell membranes, S1PR2. The following applies: read-out: [^32P]S1P competition assay IC50; S1PR2, radioligand [^32P]S1P.

Series [1] addresses T2, Human recombinant sphingosine-1-phosphate receptor 2 (Homo sapiens, UniProt O95136). In words: competitive binding assay using [^125I]34 as radioligand. The following applies: S1PR2, radioligand [^125I]34; read-out: [^125I]34 competition assay IC50.
Protocol: Then, 50 μL of different concentrations (0.01, 0.05, 0.1, 0.5, 1.0, 5.0, 10.0, 50.0, 100, 500, 1000 nM) of each ligand and 50 μL of [^125]34 (6.0 nM) was added to each well. The mixture was incubated for 1 h on a shaker at room temperature and then transferred onto a 96-well glass fiber filtration plates. The unbound activity was filtered and rapidly washed using ice-cold assay buffer (5×200 μL/well). After drying under reduced pressure, the filter bound radionuclide was measured by a Beckman 8000 automated gamma counter. The binding potency (IC50) was calculated using GraphPad Prism.
Series [2] can be described thus: ex vivo biodistribution study of [^125I]34 in Wistar rats.
Protocol: A pilot biodistribution study was carried out in a small number of rats at early time points post-injection in order to minimize the amount of mixed (radioactive and biological) waste generated by in vivo work. […] Control and streptozotocin-treated Wistar rats were used 10 days after treatment for the preliminary pilot acute ex vivo biodistribution study described below.
As described above, adult male Wistar rats from Charles River were used for a pilot study to evaluate the distribution of [^125I]34 in normal rats at 5 and 30 min post injection and in acute streptozotocin-induced diabetic rats 30 min post-injection (n=4 for each group). The acute streptozotocin-induced diabetic rats were treated 10 days before the study as described above. […] The concentrated solution of [^125I]34 was diluted to ˜0.037 MBq/100 μL which was formulated for injection in 10% ethanol in 5% polyoxyethylated 12-hydroxystearic acid (Kolliphor® HS 15, Millipore Sigma, Billerica, Mass.) and normal saline solution, in order to ensure that the radioactivity was solubilized. Rats were injected via the lateral tail vein under 2-3% isoflurane/oxygen anesthesia, then allowed to recover until euthanized under isoflurane/oxygen anesthesia at the appropriate time point post-injection. Tissues including blood, heart, lung, liver, kidney, muscle, fat, pancreas, spleen, kidney, liver, thyroid, thymus, brain, and small intestines were collected, weighed, and counted in a Beckman Gamma 8000 counter, and counts were corrected for background and decay corrected. Tracer uptake in tissues and organs was calculated as percent injected dose per gram of tissue (% ID/g).
Series [3] has as its target T2, Human recombinant sphingosine-1-phosphate receptor 2. Briefly: biochemical. The class given is binding.
Protocol: Then, a 50 μL aliquot of increasing concentrations of [^125I]34 (0.2, 0.5, 1.0, 2.0, 4.0, 6.0, 8.0, 10.0, 16.0, and 20.0 nM) was added to each well; each concentration of [^125I]34 was calculated from the radioactivity and specific activity. […] The mixture was incubated at room temperature for 1 h on a shaker and then transferred onto 96-well glass fiber filtration plates. The unbound activity was filtered and rapidly washed away using 200 μL/well of ice-cold assay buffer for 5 times. After drying under the vacuum, the filter bound radionuclide was measured by a Beckman 8000 automated gamma counter. Data analysis was accomplished using GraphPad Prism (GraphPadSoftware, Inc., San Diego, Calif.). The specific binding was calculated by subtracting the non-specific binding from the total binding. The binding assay data were curve-fit to a one-site binding equation to generate the dissociation constant (Kd) of the [^125I]34.
For series [4], the target named is T3, sphingosine-1-phosphate receptor 2 in kidney sections (Rattus norvegicus, UniProt P47752).
T3 construct: from tissue; host or cells: kidney of male Sprague Dawley rats (control and STZ-induced diabetic)
T3 sequence (P47752 whole entry): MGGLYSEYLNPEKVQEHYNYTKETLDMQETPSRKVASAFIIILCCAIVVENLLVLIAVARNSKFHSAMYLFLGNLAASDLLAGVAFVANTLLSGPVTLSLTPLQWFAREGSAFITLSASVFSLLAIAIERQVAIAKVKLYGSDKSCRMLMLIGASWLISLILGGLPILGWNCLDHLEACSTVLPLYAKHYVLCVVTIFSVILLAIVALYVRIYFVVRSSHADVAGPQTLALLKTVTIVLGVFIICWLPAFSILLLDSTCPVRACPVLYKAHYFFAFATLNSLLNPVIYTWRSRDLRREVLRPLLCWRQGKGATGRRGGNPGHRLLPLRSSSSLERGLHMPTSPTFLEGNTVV
Briefly: in vitro autoradiography of [^125I]34 on rat kidney sections. The class given is binding, Sprague Dawley rats. How it is done:
To check that changes of S1PR2 expression can be detected using [^125I]34 in the STZ induced diabetes rats, in vitro autoradiography studies of [^125]34 were performed.
Male Sprague Dawley (SD) rats (8 weeks old,) received streptozotocin (STZ) via tail vein injections at a dose of 55 mg/kg in 50 mM sodium citrate buffer 12 weeks prior to euthanasia and tissue harvesting. Body weight and blood glucose levels were measured weekly in control and treated animals, where elevated blood glucose was indicative of chronic diabetes (see FIG. 5a). After 12 weeks, the rats were euthanized and one kidney was removed, snap-frozen, and sectioned (14 microns) with a Leica cryostat.
The autoradiography experiment was performed by incubating frozen cross sections of rat kidney tissue and 1.85 KBq/slide of [^125I]34 in 500 μL of binding buffer (50 mM HEPES-Na pH 7.5, 5 mM MgCl2, and 1 mM CaCl2, 0.5% fatty acid-free bovine serum albumin) to check the uptake of the radioactivity. Blocking studies of radiotracer were performed by incubating the above solution with 10 μM of JTE-013, a S1PR2 specific inhibitor. After incubation for 60 minutes at room temperature, the kidney sections were washed 2 minutes each using the following buffers sequentially: 1×TBST, 15% ethanol in 1×TBST, 30% ethanol in 1×TBST, 1×TBST (1×TBST buffer: 20 mM of Tris, 150 mM of NaCl, 0.1% of Tween 20). Then, the section slides were placed into a cassette and exposed to a phosphor sensor sheet for 24 hours. Autoradiography signal was visualized by phosphor-imaging of FLA7000. Autoradiography signal on the renal tissues (cortex and medulla, not including the renal papilla) was measured and quantified with Multi Gouge program. The data was background-corrected and expressed as photo-stimulated luminescence signals per square millimeter (PSL/mm^2) as shown in FIG. 5B. For statistical comparison, the student t-test (unpaired) was applied using MS Excel and p<0.05 was considered statistically significant (see FIG. 5C.)

T2 sequence (O95136 whole entry): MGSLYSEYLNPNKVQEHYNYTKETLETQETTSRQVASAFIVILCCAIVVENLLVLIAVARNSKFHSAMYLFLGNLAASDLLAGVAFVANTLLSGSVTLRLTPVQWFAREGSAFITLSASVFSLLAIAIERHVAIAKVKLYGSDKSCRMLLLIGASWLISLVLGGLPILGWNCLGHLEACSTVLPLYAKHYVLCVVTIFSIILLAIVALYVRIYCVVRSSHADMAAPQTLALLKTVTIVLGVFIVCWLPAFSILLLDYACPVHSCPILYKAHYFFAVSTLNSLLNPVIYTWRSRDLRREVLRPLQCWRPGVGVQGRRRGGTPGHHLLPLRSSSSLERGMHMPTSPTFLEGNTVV
T1 sequence (O95136 whole entry): as above

For `COc1ccc(NC(=O)Cn2c(=O)c3ccccc3n(CC(=O)Nc3cc(I)c(OC)cc3OC)c2=O)cc1` [Compound 34, N-(5-iodo-2,4-dimethoxyphenyl)-2-(3-(2-((4-methoxyphenyl)amino)-2-oxoethyl)-2,4-dioxo-3,4-dihydroquinazolin-1(2H)-yl)acetamide], the figures for the IC50 (at S1PR2; in series [1]) were 2.8 nM and 4.4 ± 0.2 nM, respectively.

Take `COc1ccc(NC(=O)Cn2c(=O)c3ccccc3n(CC(=O)Nc3cc([125I])c(OC)cc3OC)c2=O)cc1` [[^125I]34]: in series [2] (5 min control), the “Uptake Blood” value was 0.19 % ID/g and 0.19 ± 0.05 % ID/g; the “Uptake Brain” value was 0.01 % ID/g and 0.01 ± 0.00 % ID/g; the “Uptake Fat” value turned out to be 0.07 ± 0.02 % ID/g; the “Uptake Heart” value was 0.39 % ID/g and 0.39 ± .08 % ID/g. Also, in series [2] (5 min control), the “Uptake Kidney” value is 0.58 % ID/g and 0.58 ± 0.02 % ID/g; the “Uptake Liver” value was 2.20 % ID/g and 2.20 ± 0.32 % ID/g; the “Uptake Lung” value is 0.64 % ID/g and 0.64 ± 0.01 % ID/g; the “Uptake Muscle” value is 0.12 ± 0.01 % ID/g. Further, in series [2] (5 min control), the “Uptake Pancreas” value amounted to 0.40 ± 0.04 % ID/g, the “Uptake Small intestines” value is reported as 1.09 ± 0.23 % ID/g, the “Uptake Spleen” value is on record as 0.29 ± 0.06 % ID/g and the “Uptake Thymus” value is given as 0.10 ± 0.01 % ID/g. The “Uptake Thyroid” value in series [2] (5 min control) stood at 0.32 ± 0.11 % ID/g. For the same compound, in series [2] (30 min acute diabetic), the “Uptake Blood” value came out at 0.08 ± 0.05 % ID/g, the “Uptake Brain” value is given as 0.01 ± 0.00 % ID/g, the “Uptake Fat” value came to 0.11 ± 0.04 % ID/g and the “Uptake Heart” value was 0.12 ± 0.06 % ID/g. In series [2] (30 min acute diabetic), the “Uptake Kidney” value is on record as 0.15 ± 0.06 % ID/g, the “Uptake Liver” value was determined as 0.36 ± 0.14 % ID/g, the “Uptake Lung” value stood at 0.20 ± 0.09 % ID/g and the “Uptake Muscle” value is 0.06 ± 0.02 % ID/g. Also, in series [2] (30 min acute diabetic), the “Uptake Pancreas” value is listed as 0.12 ± 0.04 % ID/g, the “Uptake Small intestines” value is recorded as 2.59 ± 0.58 % ID/g, the “Uptake Spleen” value was 0.05 ± 0.02 % ID/g and the “Uptake Thymus” value came out at 0.08 ± 0.03 % ID/g. In series [2] (30 min acute diabetic), the “Uptake Thyroid” value was determined as 0.25 ± 0.06 % ID/g. Further, in series [2] (30 min control), the “Uptake Blood” value amounted to 0.08 ± 0.02 % ID/g, the “Uptake Brain” value is given as 0.01 ± 0.00 % ID/g, the “Uptake Fat” value is given as 0.09 ± 0.01 % ID/g and the “Uptake Heart” value was 0.14 ± 0.02 % ID/g. In addition, in series [2] (30 min control), the “Uptake Kidney” value turned out to be 0.15 ± 0.02 % ID/g, the “Uptake Liver” value came out at 0.36 ± 0.07 % ID/g, the “Uptake Lung” value was found to be 0.22 ± 0.04 % ID/g and the “Uptake Muscle” value is 0.08 ± 0.01 % ID/g. Also, in series [2] (30 min control), the “Uptake Pancreas” value turned out to be 0.14 ± 0.01 % ID/g, the “Uptake Small intestines” value is recorded as 5.32 ± 0.27 % ID/g, the “Uptake Spleen” value is 0.06 ± 0.01 % ID/g and the “Uptake Thymus” value amounted to 0.10 ± 0.02 % ID/g. Also, the “Uptake Thyroid” value in series [2] (30 min control) was 0.53 ± 0.09 % ID/g. In addition, in series [2] (inferred from low activity in the thyroid), the “in vivo metabolic stability” value was “metabolically stable”. Also, the “crossing of the blood brain barrier” value in series [2] (inferred from very low brain uptake in rats) is “does not cross the blood brain barrier”. Also, the Kd in series [3] was found to be 4.31 ± 0.39 nM. Moreover, the “blocking of binding to kidney tissue” value in series [4] (10 μM of JTE-013, both groups) is listed as “could be blocked”. Besides, the “kidney radioactivity (autoradiography signal)” value in series [4] (chronic diabetic (STZ) rats, n=5) was found to be 103.5 PSL/mm^2. Further, in series [4] (chronic diabetic vs control), the “increase of binding to kidney of diabetic rats compared to control rats” value turned out to be 44%. Besides, in series [4] (control rats, n=4), the “kidney radioactivity (autoradiography signal)” value is listed as 72.0 PSL/mm^2.

A word on the IC50: it is the concentration that gives 50% inhibition. One may read the Kd as the constant that tells how readily two partners part at equilibrium.
